In patent US20150218172A1, “Pyrrolo[2,3-D]Pyrimidine Tropomyosin-Related Kinase Inhibitors” (PFIZER LIMITED, priority 2012, published 2015):

The compounds below were run against T1, TrkA (Homo sapiens, UniProt P04629) (assay: Isolated TRK enzyme assay (HTRF KinEASE-TK kit), PV3144 TrkA enzyme assay). Details: PV3144 TrkA enzyme assay, recombinant His-tagged cytoplasmic domain aa 441-796, 4 nM enzyme, 40 uM ATP; arithmetic mean where more than one reading; read-out: Trka enzyme (IC50).
T1 construct: aa 441-796; His; purchased Invitrogen PV3144
T1 sequence (P04629 441-796): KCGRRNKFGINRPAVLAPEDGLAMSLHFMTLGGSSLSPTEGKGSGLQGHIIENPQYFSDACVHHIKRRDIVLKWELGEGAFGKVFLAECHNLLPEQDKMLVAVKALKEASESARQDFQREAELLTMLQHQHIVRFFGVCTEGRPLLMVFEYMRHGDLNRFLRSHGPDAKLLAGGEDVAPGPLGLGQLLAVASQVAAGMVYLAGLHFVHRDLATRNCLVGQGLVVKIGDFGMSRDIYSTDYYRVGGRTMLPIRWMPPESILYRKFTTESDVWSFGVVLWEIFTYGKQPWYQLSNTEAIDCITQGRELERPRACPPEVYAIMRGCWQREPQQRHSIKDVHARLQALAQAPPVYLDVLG
Type: biochemical
Method in brief: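 Recombinant His-tagged cytoplasmic domain of human TrkA, preactivated with ATP for 20 min, then 20 min with compound before biotinylated TK substrate (1 uM final) at room temperature. HTRF read at 665/620 nm; % inhibition normalised to reference-compound and DMSO controls, IC50 from sigmoid fit, mean of replicates.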

SMILES	IC50
CC(C)n1cc(C(=O)c2ccnc(NC(=O)Cc3ccc(Cl)c(Cl)c3)c2)c2cncnc21 [Example 66, 2-(3,4-Dichlorophenyl)-N-{4-[(7-isopropyl-7H-pyrrolo[2,3-d]pyrimidin-5-yl)carbonyl]pyridin-2-yl}acetamide]	4.45 nM
O=C(Cc1ccc(Cl)cc1)Nc1ccnc(C(=O)c2cn(C(CO)CO)c3ncncc23)c1 [Example 92, 2-(4-chlorophenyl)-N-(2-{[7-(1,3-dihydroxypropan-2-yl)-7H-pyrrolo[2,3-d]pyrimidin-5-yl]carbonyl}pyridin-4-yl)acetamide]	747 nM
CC(C)n1cc(C(=O)c2ccnc(NC(=O)Cc3ccc(F)cn3)c2)c2cncnc21 [Example 73, 2-(5-fluoropyridin-2-yl)-N-(4-{[7-(propan-2-yl)-7H-pyrrolo[2,3-d]pyrimidin-5-yl]carbonyl}pyridin-2-yl)acetamide]	58.2 nM
COc1cc(C(=O)c2cn(C(C)C)c3ncncc23)cc(NC(=O)Cc2ccc(C#N)cc2)n1 [Example 165, 2-(4-cyanophenyl)-N-(6-methoxy-4-{[7-(propan-2-yl)-7H-pyrrolo[2,3-d]pyrimidin-5-yl]carbonyl}pyridin-2-yl)acetamide]	1040 nM
O=C(Cc1cccc(OC(F)(F)F)c1)Nc1cc(C(=O)c2cn(CCO)c3ncncc23)ccn1 [Example 135, N-(4-{[7-(2-hydroxyethyl)-7H-pyrrolo[2,3-d]pyrimidin-5-yl]carbonyl}pyridin-2-yl)-2-[3-(trifluoromethoxy)phenyl]acetamide]	21.5 nM
CC(C)(CO)n1cc(C(=O)c2cc(NC(=O)Cc3ccc(Cl)cn3)ccn2)c2cnc(N)nc21 [Example 52, N-(2-{[2-amino-7-(1-hydroxy-2-methylpropan-2-yl)-7H-pyrrolo[2,3-d]pyrimidin-5-yl]carbonyl}pyridin-4-yl)-2-(5-chloropyridin-2-yl)acetamide]	73.1 nM
CC(C)(C)n1cc(C(=O)c2cc(NC(=O)Cc3ccc(Cl)cc3)ccn2)c2cncnc21 [Example 42, N-{2-[(7-tert-butyl-7H-pyrrolo[2,3-d]pyrimidin-5-yl)carbonyl]pyridin-4-yl}-2-(4-chlorophenyl)acetamide]	11.5 nM
Cc1cc(C(=O)c2cn(C(C)C)c3ncncc23)cc(NC(=O)Cc2ccc(C#N)cc2)n1 [Example 76, 2-(4-cyanophenyl)-N-(6-methyl-4-{[7-(propan-2-yl)-7H-pyrrolo[2,3-d]pyrimidin-5-yl]carbonyl}pyridin-2-yl)acetamide]	315 nM
CC(C)n1cc(C(=O)c2ccnc(NC(=O)Cc3ccccn3)c2)c2cncnc21 [Example 163, N-(4-{[7-(propan-2-yl)-7H-pyrrolo[2,3-d]pyrimidin-5-yl]carbonyl}pyridin-2-yl)-2-(pyridin-2-yl)acetamide]	3620 nM
Cc1ccn(CC(=O)Nc2cc(C(=O)c3cn(C(C)C)c4ncncc34)ccn2)n1 [Example 70, 2-(3-methyl-1H-pyrazol-1-yl)-N-(4-{[7-(propan-2-yl)-7H-pyrrolo[2,3-d]pyrimidin-5-yl]carbonyl}pyridin-2-yl)acetamide]	144 nM
O=C(Cc1ccc(C(F)(F)F)cc1)Nc1ccnc(C(=O)c2cn(C(CO)CO)c3ncncc23)c1 [Example 93, N-(2-{[7-(1,3-dihydroxypropan-2-yl)-7H-pyrrolo[2,3-d]pyrimidin-5-yl]carbonyl}pyridin-4-yl)-2-[4-(trifluoromethyl)phenyl]acetamide]	164 nM
C[C@@H](CO)n1cc(C(=O)c2cc(NC(=O)Cn3cc(C4CC4)nn3)ccn2)c2cncnc21 [Example 30, 2-(4-cyclopropyl-1H-1,2,3-triazol-1-yl)-N-[2-({7-[(2S)-1-hydroxypropan-2-yl]-7H-pyrrolo[2,3-d]pyrimidin-5-yl}carbonyl)pyridin-4-yl]acetamide]	89.7 nM
C[C@@H](CO)n1cc(C(=O)c2cc(NC(=O)Cc3ccc(Cl)cc3)ccn2)c2cncnc21 [Example 16, 2-(4-chlorophenyl)-N-[2-({7-[(2S)-1-hydroxypropan-2-yl]-7H-pyrrolo[2,3-d]pyrimidin-5-yl}carbonyl)pyridin-4-yl]acetamide]	147 nM
CC(C)n1cc(C(=O)c2ccnc(NC(=O)Cc3ccc(C(F)(F)F)c(F)c3)c2)c2cncnc21 [Example 124, 2-[3-fluoro-4-(trifluoromethyl)phenyl]-N-(4-{[7-(propan-2-yl)-7H-pyrrolo[2,3-d]pyrimidin-5-yl]carbonyl}pyridin-2-yl)acetamide]	15.1 nM
C[C@@H](CO)n1cc(C(=O)c2cc(NC(=O)Cc3ccc(Cl)cn3)ccn2)c2cncnc21 [Example 13, 2-(5-chloropyridin-2-yl)-N-[2-({7-[(2S)-1-hydroxypropan-2-yl]-7H-pyrrolo[2,3-d]pyrimidin-5-yl}carbonyl)pyridin-4-yl]acetamide]	230 nM
CC(CO)(CO)n1cc(C(=O)c2cc(NC(=O)Cc3ccc(C(F)(F)F)cc3)ccn2)c2cncnc21 [Example 103, N-(2-{[7-(1,3-dihydroxy-2-methylpropan-2-yl)-7H-pyrrolo[2,3-d]pyrimidin-5-yl]carbonyl}pyridin-4-yl)-2-[4-(trifluoromethyl)phenyl]acetamide]	13.6 nM
CC(C)n1cc(C(=O)c2ccnc(NC(=O)Cc3ccc(Cl)cc3)c2)c2cncnc21 [Example 150, 2-(4-chlorophenyl)-N-(4-{[7-(propan-2-yl)-7H-pyrrolo[2,3-d]pyrimidin-5-yl]carbonyl}pyridin-2-yl)acetamide]	85.3 nM
